# From US20160010138A1, “RAPID DETERMINATION OF MICROBIAL DROWTH AND ANTIMICROBIAL SUSEPTABILITY” (priority 2013, published 2016)
# Where two headings read alike, the source gives them in different places.
# How the values were obtained:
# Enteric = test: MADM (BACcel) phenotype/sensitivity by growth analysis, surveillance mini-BAL; format: cell-based; settings: Spec# 005-D7, BACcel ID Enteric, 1.26 × 10^5 CFU/ml
# Procedure: (§1) Adult MICU patients with identified surrogate were included within 72 hours of intubation and if anticipated to require MV for >48 h. Moribund state or pregnancy were exclusions. Surveillance mini-BAL (Combicath, Plastimed) was performed on Day 1, 3, 5, 7 and 10 of MV. Samples were split and processed for both a) routine respiratory quantitative microbiological culture and sensitivity assays (>48 h result availability) and b) rapid (<8 hour) flowcell/surface-capture assays using the MADM system. Viable microorganisms were identified using growth analysis enhanced by a focused VAP antibody panel (S. aureus, P. aeruginosa, A. baumannii). Untypable organisms were also reported. Sensitivity was assessed using growth analysis. Attending physicians were blinded to MADM system results.
# BAL sample were prepared, removing debris and separating microorganisms from other sample material. Sample microorganisms were introduced into a multichannel fluidic cassette as described elsewhere herein. […]
# The automated digital microscopy system was used to perform darkfield imaging of 10 fields of view every 10 minutes for 180 minutes in each flowcell channel. […] Quantitation was performed by counting identified microorganisms and computing original specimen CFU/mL.
# Steno = test: as above; format: cell-based, S. maltophilia
# Procedure: as §1
# (§2) BAL sample were prepared, removing debris and separating microorganisms from other sample material. Sample microorganisms were introduced into a multichannel fluidic cassette as described elsewhere herein. Bacteria were concentrated and retained on the lower surface of all flowcells using low-voltage electrical field (5 min) Antibody labeling of bacteria in flowcells was used to aid identification.
# (§3) The automated digital microscopy system was used to perform darkfield imaging of 10 fields of view every 10 minutes for 180 minutes in each flowcell channel. Initial epifluorescence imaging was also performed for antibody detection. […] Identification consisted of probability scores based on microorganism morphology and growth rates. Antibody labeling identification data was also incorporated. Observed microorganisms were then classified as STAU, PSAE, or non-target. Antibiotic responses were used to aid identification when appropriate. Quantitation was performed by counting identified microorganisms and computing original specimen CFU/mL.
# E. coli = test: Membrane potential indicator staining; format: cell-based; settings: 10 µg/ml DiBAC4(3), 15 min, room temp
# Description: (§4) Physiologic indicators of active bacteria include indicators of growth, responsiveness to external stimulus, transcription, translation, energy dependent activity, enzyme activity, and an intact permeability barrier. The indicators tested experimentally were grouped according to the following functional categories of physiologic states to which they are responsive, which included indicators of respiratory and metabolic activity, and membrane integrity.
# Active bacterial cells maintain a proton gradient across their cell membranes, creating a membrane potential that may be measured using fluorescent dyes. However, the dyes used in this study to evaluate membrane potential are toxic to bacteria and can only be used as an endpoint assay.
# DiBAC4(3) (Molecular Probes) is an anionic dye that enters depolarized cells (i.e., cells lacking a membrane potential) and fluoresces in the […] channel when it binds to intracellular proteins or membranes. Using this indicator, 18.5% of an overnight refrigerator stock (control) and 95% of heat-killed E. coli stained with 10 µg/ml DiBAC4(3) after a 15 min incubation period at room temp.
# [1] = test system: heat-killed cells and isopropyl alcohol killed cells; test: Esterase activity indicator fluorescence in killed cells (MADM system); format: cell-based
# Description: as §4
# Carboxyfluorescein diacetate/carboxyfluorescein diacetate succinimidyl ester (CFDA/CFDA-SE; Molecular Probes) compounds are converted into amine-reactive fluorescent molecules when cleaved by esterases present within active cells. When CFDA-SE is taken up by live cells, the fluorescent molecule produced by esterase cleavage and amine reaction is retained inside the cell. […] The product formed by uptake and processing of CFDA, on the other hand, should be more “leaky” over time and may exit a dead cell. […] Shorter delay times have not yet been investigated but may be compatible with avoiding false positive results while providing a shorter assay period.
# [2] = test system: Pseudomonas aeruginosa (PSAE); test: MADM system resistance phenotype tests on respiratory specimens; format: cell-based; settings: for resistance phenotype result (S/R), MADM: ID PSAE; on resistance phenotype result (S/R), MADM: key: S: susceptible; R: resistant
# Procedure: (§5) These specimens were prepped for introduction into the MADM system. The system performed quantitative ID for Staphylococcus aureus (STAU), Pseudomonas aeruginosa (PSAE), and Acinetobacter spp. (ABCC). Concurrent quantitative culture was performed on specimens. The MADM system performed resistance phenotype tests on STAU-containing specimens for cefoxitin (FOX) MRSA phenotyping and clindamycin (CLI) resistance. The system tested ABCC- and PSAE-containing specimens for amikacin (AN) and imipenem (IMP) resistance.
# (§6) Specimen preparation used a brief procedure to release bacteria, reduce imaging background, and suspend bacteria in a low ionic strength buffer. […] The remaining 62 specimens were tested using the MADM system.
# (§7) 20 μL samples of prepared specimen were pipetted into independent flowcell channels and a low-voltage electrical field was applied for 5 minutes. The electrical field concentrated bacteria onto a functional surface coating that immobilized the bacteria on the lower flowcell surface. Each flowcell channel received only one type of test reagent solution that contained a selective agent if required (only for channels used to test AB, sulbactam 32 μg/mL).
# (§8) The instrument acquired images at 10-minutes intervals for 180 minutes, using 10 fields of view in each flowcell channel through a 20× objective. Imaging used darkfield illumination. Identification variables included response to selective agents (AB with sulbactam), cell morphology, growth morphology, and growth rate.
# (§9) Identification algorithms applied to each individual immobilized bacterial cell. The system measured the amount of change in mass over time to compute growth rates. Identification consisted of computing and combining probability scores for morphology, response to selective media, and growth rates to produce a receiver operating characteristic curve (ROC) to derive classification criteria.
# [3] = test system: Pseudomonas aeruginosa (PSAE); format: cell-based; settings: ID PSAE, culture result; further: key: S: susceptible; R: resistant
# Description: A total of 281 de-identified remnant respiratory specimens were collected from hospital and commercial sources. The specimens included 25 endotracheal aspirates (ETA) of unknown age obtained from a specimen vendor. Also included were 230 mini-bronchoalveolar lavage (mini-BAL) and 26 ETA specimens obtained from Denver Health Medical Center (DHMC). DHMC specimens were 7-21 days old. AST results were available for all mini-BAL specimens but not for ETA. Accompanying reports also included semi-quantitative ID used to select 92 bacteria-positive specimens for analysis using the MADM system. Targets included Pseudomonas aeruginosa, Acinetobacter baumannii complex, and Staphylococcus aureus. Controls used standard culturing methods (Cx).
# as §5
# [4] = test system: Acinetobacter spp. (ABCC); test: MADM system resistance phenotype tests on respiratory specimens; format: cell-based, Acinetobacter sp. On resistance phenotype result (S/R), MADM: key: S: susceptible; R: resistant.
# Procedure: as §5, §6, §7, §8, §9
# [5] = test system: Staphylococcus aureus (STAU); test: as above; format: cell-based; settings: ID STAU, MRSA by FOX
# Procedure: (§10) (ABCC). Concurrent quantitative culture was performed on specimens.
# Specimen preparation used a brief procedure to release bacteria, reduce imaging background, and suspend bacteria in a low ionic strength buffer. […] We rejected 10 samples with heavy interfering background when dilution to OD600=0.3 yielded organism counts inadequate for analysis. We rejected 7 samples for other technical deficiencies. The remaining 62 specimens were tested using the MADM system.
# as §7, §8, §9
# [6] = test system: Staphylococcus aureus (STAU); test: Culture (Cx) / hospital AST comparator on respiratory specimens; format: cell-based; settings: for resistance phenotype result (S/R), Cx: ID STAU, culture result, MRSA by oxacillin; on resistance phenotype result (S/R), Cx: key: S: susceptible; R: resistant
# Procedure: DHMC specimens were 7-21 days old. […] Controls used standard culturing methods (Cx).
# as §10
# STAU = test: MADM (BACcel) phenotype/sensitivity by growth analysis, surveillance mini-BAL; format: cell-based, S. aureus
# Procedure: as §1, §2, §3
# [7] = test system: Klebsiella pneumoniae (KP) clinical isolates; test: KPC assay: growth in ertapenem with and without boronic acid inhibitor (MADM); format: cell-based
# Procedure: The bottom surface was coated with poly-L-lysine to immobilize live bacteria.
# Clinical isolates of Pseudomonas aeruginosa (PA), Acinetobacter baumannii (AB), and Klebsiella pneumoniae (KP) were tested. […] Test results are expressed as nonsusceptible (NS) or susceptible (S).
# Isolates were grown on blood agar, suspended colonies in tryptic soy broth for 2 hours, then centrifuged and resuspended log-phase bacteria in low ionic strength electrokinetic buffer.
# MADM system analysis was performed using a 32-channel disposable fluidic cassette (FIG. 4A) to measure growth of immobilized bacteria. […] Klebsiella pneumoniae (KP) clinical isolates were tested for ertapenem (ETP) nonsusceptibility at 16 μg/mL with and without the inhibitors aminophenyl boronic acid (APB) at 300 μg/mL or benzo(b)thiophene-2-boronic acid (BTB) at 50 μg/mL to identify putative KPC-positive strains.
# 10 μL aliquots of 5E+7 CFU/mL were pipetted into separate flowcells for each isolate and test condition. Microorganisms were electrokinetically concentrated onto the flowcell detection surface with an electrical field to the positively charged lower surface to immobilize cells and yield 10-100 bacteria per field of view (FIG. 4B). […] The system measured growth at 10-minute intervals. […] Growth was evaluated, interpreting results for PA, AB, and KP-ETP as NS if growth had not arrested within 3 hours. […]
# [8] = Spec# 006-D1, BACcel ID Steno, 7.68 × 10^5 CFU/ml
# [9] = Spec# 006-D3, BACcel ID Steno, 1.60 × 10^4 CFU/ml
# [10] = dyes added immediately after heat or isopropyl alcohol treatment
molecule,measurement,setting,value
"CC(C)(O/N=C(\C(=O)N[C@@H]1C(=O)N2C(C(=O)[O-])=C(C[n+]3ccccc3)CS[C@H]12)c1csc(N)n1)C(=O)O [CAZ, ceftazidime]","Phenotype, sensitivity (growth in antibiotic)",Enteric,all growth
same,"Phenotype, sensitivity (growth in antibiotic)",Steno; [8],"growth, TZP-"
same,"Phenotype, sensitivity (growth in antibiotic)",Steno; [9],"growth, TZP-"
CCCCN1C(=O)C(=CC=Cc2c(O)n(CCCC)c(=O)n(CCCC)c2=O)C(=O)N(CCCC)C1=O [DiBAC4(3)],cells stained,E. coli; heat-killed E. coli,95%
same,cells stained,E. coli; overnight refrigerator stock (control) E. coli,18.5%
Carboxyfluorescein diacetate [CFDA],fluorescence of killed cells,[1]; [10],demonstrated fluorescence
"NCC[C@H](O)C(=O)N[C@@H]1C[C@H](N)[C@@H](O[C@H]2O[C@H](CN)[C@@H](O)[C@H](O)[C@H]2O)[C@H](O)[C@H]1O[C@H]1O[C@H](CO)[C@@H](O)[C@H](N)[C@H]1O [AN, amikacin]",susceptibility of all PSAE,[2]; all PSAE-containing respiratory specimens,susceptible
same,"resistance phenotype result (S/R), MADM","[2]; specimen DH 430, Mini-BAL",S
same,"resistance phenotype result (S/R), MADM","[2]; specimen DH 554, BAL",S
same,"resistance phenotype result (S/R), MADM","[2]; specimen DH 641, Mini-BAL",S
same,"resistance phenotype result (S/R), Cx","[3]; specimen DH 430, Mini-BAL",S
same,"resistance phenotype result (S/R), Cx","[3]; specimen DH 554, BAL",S
same,"resistance phenotype result (S/R), Cx","[3]; specimen DH 641, Mini-BAL",S
same,"resistance phenotype result (S/R), MADM",[4]; ABCC-positive specimen (specimen name not given),S
same,susceptibility of all ABCC,[4]; all ABCC-containing respiratory specimens,susceptible
same,"Phenotype, sensitivity (growth in antibiotic)",Steno; [8],"growth, TZP-"
same,"Phenotype, sensitivity (growth in antibiotic)",Steno; [9],"growth, TZP-"
carboxyfluorescein diacetate succinimidyl ester [CFDA-SE],fluorescence of killed cells,[1]; [10],demonstrated fluorescence
same,fluorescence of killed cells,[1]; two hour post-heat-kill delay,no fluorescence was observed
"CCC[C@@H]1C[C@@H](C(=O)N[C@@H]([C@H]2O[C@H](SC)[C@H](O)[C@@H](O)[C@H]2O)[C@H](C)Cl)N(C)C1 [CLI, clindamycin]","resistance phenotype result (S/R), MADM","[5]; specimen DH 425, Mini-BAL",S
same,"resistance phenotype result (S/R), MADM","[5]; specimen DH 427, Mini-BAL",S
same,"resistance phenotype result (S/R), MADM","[5]; specimen DH 439, Mini-BAL",S
same,"resistance phenotype result (S/R), MADM","[5]; specimen DH 440, BAL",S
same,"resistance phenotype result (S/R), MADM","[5]; specimen DH 457, BAL",S
same,"resistance phenotype result (S/R), MADM","[5]; specimen DH 485, BAL",S
same,"resistance phenotype result (S/R), MADM","[5]; specimen DH 509, BAL",S
same,"resistance phenotype result (S/R), MADM","[5]; specimen DH 514, Mini-BAL",S
same,"resistance phenotype result (S/R), MADM","[5]; specimen DH 543, BAL",S
same,"resistance phenotype result (S/R), MADM","[5]; specimen DH 550, BAL",S
same,"resistance phenotype result (S/R), MADM","[5]; specimen DH 556, Mini-BAL",S
same,"resistance phenotype result (S/R), MADM","[5]; specimen T12, ETA",S
same,"resistance phenotype result (S/R), Cx","[6]; specimen DH 425, Mini-BAL",S
same,"resistance phenotype result (S/R), Cx","[6]; specimen DH 427, Mini-BAL",S
same,"resistance phenotype result (S/R), Cx","[6]; specimen DH 439, Mini-BAL",S
same,"resistance phenotype result (S/R), Cx","[6]; specimen DH 440, BAL",S
same,"resistance phenotype result (S/R), Cx","[6]; specimen DH 457, BAL",S
same,"resistance phenotype result (S/R), Cx","[6]; specimen DH 485, BAL",S
same,"resistance phenotype result (S/R), Cx","[6]; specimen DH 509, BAL",S
same,"resistance phenotype result (S/R), Cx","[6]; specimen DH 514, Mini-BAL",S
same,"resistance phenotype result (S/R), Cx","[6]; specimen DH 543, BAL",S
same,"resistance phenotype result (S/R), Cx","[6]; specimen DH 550, BAL",S
same,"resistance phenotype result (S/R), Cx","[6]; specimen DH 556, Mini-BAL",S
same,"resistance phenotype result (S/R), Cx","[6]; specimen T12, ETA",S
same,"Phenotype, sensitivity","STAU; Spec# 008-D7, BACcel ID STAU, 1.11 × 10^6 CFU/ml",(MRSA) CLI-R
same,"Phenotype, sensitivity","STAU; Spec# 033-D7, BACcel ID STAU, 6.64 × 10^4 CFU/ml","MRSA, CLI-R"
"Cc1onc(-c2ccccc2)c1C(=O)N[C@@H]1C(=O)N2[C@@H]1SC(C)(C)[C@@H]2C(=O)O [OXA, oxacillin]","resistance phenotype result (S/R), Cx","[6]; specimen DH 425, Mini-BAL",S
same,"resistance phenotype result (S/R), Cx","[6]; specimen DH 427, Mini-BAL",S
same,"resistance phenotype result (S/R), Cx","[6]; specimen DH 439, Mini-BAL",R
same,"resistance phenotype result (S/R), Cx","[6]; specimen DH 440, BAL",S
same,"resistance phenotype result (S/R), Cx","[6]; specimen DH 457, BAL",S
same,"resistance phenotype result (S/R), Cx","[6]; specimen DH 485, BAL",S
same,"resistance phenotype result (S/R), Cx","[6]; specimen DH 509, BAL",S
same,"resistance phenotype result (S/R), Cx","[6]; specimen DH 514, Mini-BAL",S
same,"resistance phenotype result (S/R), Cx","[6]; specimen DH 543, BAL",S
same,"resistance phenotype result (S/R), Cx","[6]; specimen DH 550, BAL",S
same,"resistance phenotype result (S/R), Cx","[6]; specimen DH 556, Mini-BAL",S
same,"resistance phenotype result (S/R), Cx","[6]; specimen T12, ETA",R
same,MRSA/MSSA call by oxacillin MIC (hospital AST),[6]; the one discordant STAU sample,MSSA
"C[C@@H](O)[C@H]1C(=O)N2C(C(=O)O)=C(S[C@@H]3CN[C@H](C(=O)Nc4cccc(C(=O)O)c4)C3)[C@H](C)[C@H]12 [ETP, ertapenem]",growth of susceptible (KPC-negative) strains,[7]; ETP at 16 μg/mL (FIG. 21),fail to grow
same,growth morphology during drug exposure,"[7]; KPC clinical isolate, ETP 16 μg/mL, 20 and 90 min of exposure (FIG. 20)",abnormal growth morphology
